Data as given in US8658604B2, “Template-fixed beta-hairpin peptidomimetics with protease inhibitory activity” (Polyphor Ltd, priority 2005, dated 2014).
Read-outs that look alike come from different tables or passages of the source. Where a SMILES comes first, the peptide text is derived from it.

Assays:
[1] = molecular target: Trypsin, from human pancreas (Homo sapiens, UniProt P07477); assay: Enzymatic assay, trypsin; conditions: at 100 μM
[2] = molecular target: T1, Chymase, from human skin (Homo sapiens, UniProt P23946); assay: Enzymatic assay, chymase
T1 sequence (P23946 22-247): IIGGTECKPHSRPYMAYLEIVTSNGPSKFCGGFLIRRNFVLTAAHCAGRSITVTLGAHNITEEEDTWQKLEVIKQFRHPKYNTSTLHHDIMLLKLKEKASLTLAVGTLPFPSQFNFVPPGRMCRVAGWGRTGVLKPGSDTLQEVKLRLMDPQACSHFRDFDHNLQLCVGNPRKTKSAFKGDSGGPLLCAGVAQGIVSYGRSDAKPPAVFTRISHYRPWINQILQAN

[3] = molecular target: T2, CathepsinG, from human neutrophils (Homo sapiens, UniProt P08311); assay: Enzymatic assay, cathepsin G
T2 sequence (P08311 21-244): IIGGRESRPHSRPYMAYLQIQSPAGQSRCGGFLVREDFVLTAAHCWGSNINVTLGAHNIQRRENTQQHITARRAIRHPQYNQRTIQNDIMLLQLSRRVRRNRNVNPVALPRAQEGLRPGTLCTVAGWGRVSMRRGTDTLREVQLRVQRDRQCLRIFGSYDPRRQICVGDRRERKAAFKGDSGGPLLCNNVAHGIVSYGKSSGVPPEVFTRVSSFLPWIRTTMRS

[4] = molecular target: Urokinase from human urine (Homo sapiens, UniProt P00749); assay: Enzymatic assay, urokinase
[5] = molecular target: Coagulation Factor Xa, from uman plasma (Homo sapiens, UniProt P00742); assay: Enzymatic assay, coagulation factor Xa
Sequence of Coagulation Factor Xa, from uman plasma (P00742 235-488 limits assumed): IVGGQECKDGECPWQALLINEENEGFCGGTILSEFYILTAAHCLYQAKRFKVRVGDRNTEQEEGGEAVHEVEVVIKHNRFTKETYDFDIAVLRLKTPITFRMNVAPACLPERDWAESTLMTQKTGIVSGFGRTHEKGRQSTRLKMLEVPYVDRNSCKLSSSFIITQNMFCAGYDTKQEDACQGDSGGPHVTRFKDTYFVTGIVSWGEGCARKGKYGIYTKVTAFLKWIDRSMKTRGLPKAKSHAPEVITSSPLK
Sequence of Coagulation Factor Xa, from uman plasma (P00742 41-179 limits assumed): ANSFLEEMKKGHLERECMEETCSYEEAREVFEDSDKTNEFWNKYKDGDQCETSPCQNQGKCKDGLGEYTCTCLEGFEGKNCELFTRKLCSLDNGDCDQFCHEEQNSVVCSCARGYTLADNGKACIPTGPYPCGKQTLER

[6] = molecular target: T3, Elastase from human neutrophils (Homo sapiens, UniProt P08246); assay: Enzymatic assay, elastase
T3 sequence (P08246 30-267): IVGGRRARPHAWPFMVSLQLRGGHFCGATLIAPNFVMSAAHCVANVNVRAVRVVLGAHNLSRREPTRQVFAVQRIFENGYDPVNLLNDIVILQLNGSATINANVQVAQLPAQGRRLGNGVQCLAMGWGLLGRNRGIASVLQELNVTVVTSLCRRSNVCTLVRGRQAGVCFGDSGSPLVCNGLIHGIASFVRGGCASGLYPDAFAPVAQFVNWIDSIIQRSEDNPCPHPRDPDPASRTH

[7] = molecular target: Chymotrypsin, from human pancreas (Homo sapiens, UniProt P17538); assay: Enzymatic assay, chymotrypsin
Sequence of Chymotrypsin, from human pancreas (P17538 19-263): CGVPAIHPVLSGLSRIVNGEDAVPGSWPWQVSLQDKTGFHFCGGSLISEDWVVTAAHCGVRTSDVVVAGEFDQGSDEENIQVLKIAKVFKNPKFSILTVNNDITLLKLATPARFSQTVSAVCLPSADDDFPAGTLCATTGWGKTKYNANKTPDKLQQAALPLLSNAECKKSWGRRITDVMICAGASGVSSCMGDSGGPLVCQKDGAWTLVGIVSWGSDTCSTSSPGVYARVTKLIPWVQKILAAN

[8] = system: Tryptase, from human lung; assay: Enzymatic assay, tryptase; conditions: at 100 μM
[9] = molecular target: Thrombin, from Human Plasma (Homo sapiens, UniProt P00734); assay: Enzymatic assay, thrombin
[10] = at 100 μM (stated in cell instead of IC50)

SMILES	Trypsin at 100 μM % [1] [%]	Chymase at 100 μM % [2] [%]	IC50 ([3]; Cathepsin G IC50) [nM]	Urokinase at 100 μM % [4] [%]	FXa at 100 μM % [5] [%]	IC50 ([6]; Elastase IC50) [nM]	Chymotrypsin at 100 μM % [7] [%]	Tryptase At 100 μM % [8] [%]	Thrombin at 100 μM % [9] [%]	Tryptase at 100 μM % [8] [%]	IC50 [7] [µM]	Cathepsin G at 100 μM % [3, 10] [at 100%]	Cathepsin G at 100 μM % ([3]; at 100 μM) [at 100%]	IC50 ([3]; read-out: Cathepsin G IC50) [nM]	IC50 ([6]; read-out: Elastase IC50) [nM]
CCCC[C@@H]1NC(=O)[C@@H]2CCCN2C(=O)[C@H]2CCCN2C(=O)[C@H](Cc2ccc(O)cc2)NC(=O)[C@@H]2CSSC[C@H](NC1=O)C(=O)N[C@@H]([C@@H](C)O)C(=O)N[C@@H](C)C(=O)N[C@@H](CO)C(=O)N[C@@H]([C@@H](C)CC)C(=O)N1CCC[C@H]1C(=O)N1CC(NC(=O)c3ccccc3)C[C@H]1C(=O)N[C@@H](CCC(N)=O)C(=O)N2 (single isomer, unassigned) [Ex. 138]	12.2	4.6	43900	14.4	12.6	19	77.1	0	17.1	–	–	–	–	–	–
CC[C@H](C)[C@@H]1NC(=O)[C@@H]2CCCN2C(=O)[C@@H]2CCCN2C(=O)[C@H](CC(=O)O)NC(=O)[C@H](CO)NC(=O)[C@H](CCCCN)NC(=O)[C@H]([C@@H](C)O)NC(=O)[C@@H]2CSSC[C@H](NC1=O)C(=O)N[C@@H](Cc1ccc(O)cc1)C(=O)N1CCC[C@@H]1C(=O)N1CCC[C@H]1C(=O)N[C@@H](CCc1ccccc1)C(=O)N2 [Ex. 30] (HELM PEPTIDE1{[O=C([C@H](CCc1ccccc1)N[*:1])[*:2]].C.T.K.S.D.P.P.I.C.Y.[dP].P}$PEPTIDE1,PEPTIDE1,2:R3-10:R3|PEPTIDE1,PEPTIDE1,1:R1-13:R2$$$V2.0)	98	0	39	9	3	49900	49	–	2	–	–	–	–	–	–
CC[C@H](C)[C@@H]1NC(=O)[C@@H]2CCCN2C(=O)[C@@H]2CCCN2C(=O)[C@H](CC(=O)O)NC(=O)[C@H](CO)NC(=O)[C@H](CCCCN)NC(=O)[C@H]([C@@H](C)O)NC(=O)[C@@H]2CSSC[C@H](NC1=O)C(=O)N[C@@H](CO)C(=O)N[C@H](C)C(=O)N1CCC[C@H]1C(=O)N[C@@H](Cc1ccccc1)C(=O)N2 [Ex. 49] (HELM PEPTIDE1{F.C.T.K.S.D.P.P.I.C.S.[dA].P}$PEPTIDE1,PEPTIDE1,2:R3-10:R3|PEPTIDE1,PEPTIDE1,1:R1-13:R2$$$V2.0)	96	0	82	6.2	–	> 10000	0	–	7.9	30.5	–	–	–	–	–
CCCC[C@@H]1NC(=O)[C@@H]2CCCN2C(=O)[C@H]2CCCN2C(=O)[C@H](Cc2ccc(O)cc2)NC(=O)[C@@H]2CSSC[C@H](NC1=O)C(=O)N[C@@H]([C@@H](C)O)C(=O)N[C@@H](C)C(=O)N[C@@H](CO)C(=O)N[C@@H](CC(C)(C)C)C(=O)N1CCC[C@H]1C(=O)N1CCC[C@H]1C(=O)N[C@@H](CCC(N)=O)C(=O)N2 [Ex. 85] (HELM PEPTIDE1{[Nle].C.T.A.S.[CC(C)(C)C[C@H](N[*:1])C(=O)[*:2]].P.P.Q.C.Y.[dP].P}$PEPTIDE1,PEPTIDE1,2:R3-10:R3|PEPTIDE1,PEPTIDE1,1:R1-13:R2$$$V2.0)	0	–	–	–	25.6	28	–	–	12.6	–	> 20	–	–	–	–
CCCC[C@@H]1NC(=O)[C@@H]2CCCN2C(=O)[C@H]2CCCN2C(=O)[C@H](Cc2ccc(O)cc2)NC(=O)[C@@H]2CSSC[C@H](NC1=O)C(=O)N[C@@H](C)C(=O)N[C@@H](C)C(=O)N[C@@H](CO)C(=O)N[C@@H]([C@@H](C)CC)C(=O)N1CCC[C@H]1C(=O)N1CCC[C@H]1C(=O)N[C@@H](CCC(N)=O)C(=O)N2 [Ex. 86] (HELM PEPTIDE1{[Nle].C.A.A.S.I.P.P.Q.C.Y.[dP].P}$PEPTIDE1,PEPTIDE1,2:R3-10:R3|PEPTIDE1,PEPTIDE1,1:R1-13:R2$$$V2.0)	0	0	–	–	24.8	26	–	–	10.7	0	> 100	47	–	–	–
CCCC[C@@H]1NC(=O)[C@H](CCC(N)=O)NC(=O)[C@H]2CCCN2C(=O)[C@H](Cc2ccc(O)cc2)NC(=O)[C@@H]2CSSC[C@H](NC1=O)C(=O)N[C@@H]([C@@H](C)O)C(=O)N[C@@H](C)C(=O)N[C@@H](CO)C(=O)N[C@@H]([C@@H](C)CC)C(=O)N1CCC[C@H]1C(=O)N1CCC[C@H]1C(=O)N[C@@H](CCC(N)=O)C(=O)N2 [Ex. 123] (HELM PEPTIDE1{[Nle].C.T.A.S.I.P.P.Q.C.Y.[dP].Q}$PEPTIDE1,PEPTIDE1,2:R3-10:R3|PEPTIDE1,PEPTIDE1,1:R1-13:R2$$$V2.0)	7.9	0	35200	7.6	0	14	–	–	2.7	–	15	–	–	–	–
CCCC[C@@H]1NC(=O)[C@H](CCC(=O)O)NC(=O)[C@@H](CCCCN)NC(=O)[C@H](Cc2ccc(O)cc2)NC(=O)[C@@H]2CSSC[C@H](NC1=O)C(=O)N[C@@H]([C@@H](C)O)C(=O)N[C@@H](C)C(=O)N[C@@H](CO)C(=O)N[C@@H]([C@@H](C)CC)C(=O)N1CCC[C@H]1C(=O)N1CCC[C@H]1C(=O)N[C@@H](CCC(N)=O)C(=O)N2 [Ex. 127] (HELM PEPTIDE1{[Nle].C.T.A.S.I.P.P.Q.C.Y.[dK].E}$PEPTIDE1,PEPTIDE1,2:R3-10:R3|PEPTIDE1,PEPTIDE1,1:R1-13:R2$$$V2.0)	0	1.9	–	–	13.3	29	47.2	–	3.7	0	–	64	–	–	–
CCCCCCCC[C@@H]1NC(=O)[C@@H]2CCCN2C(=O)[C@H]2CCCN2C(=O)[C@H](CCC(N)=O)NC(=O)[C@@H]2CSSC[C@H](NC1=O)C(=O)N[C@@H]([C@@H](C)O)C(=O)N[C@@H](C)C(=O)N[C@@H](CO)C(=O)N[C@@H](CC1CCCCC1)C(=O)N1CCC[C@H]1C(=O)N1CC(NC(=O)c3ccccc3)C[C@H]1C(=O)N[C@@H](CCC(N)=O)C(=O)N2 (stereo partly shown) [Ex. 160] (HELM PEPTIDE1{[CCCCCCCC[C@H](N[*:1])C(=O)[*:2]].C.T.A.S.[Cha].P.[O=C(NC1C[C@@H](C(=O)[*:2])N([*:1])C1)c1ccccc1].Q.C.Q.[dP].P}$PEPTIDE1,PEPTIDE1,2:R3-10:R3|PEPTIDE1,PEPTIDE1,1:R1-13:R2$$$V2.0)	3	2	–	14	1	–	94	30	23	–	–	–	55	–	–
C[C@@H](O)[C@@H]1NC(=O)[C@@H]2CSSC[C@H](NC(=O)[C@H](CC3CCCCC3)NC(=O)[C@@H]3CCCN3C(=O)[C@@H]3CCCN3C(=O)[C@H](CC(=O)O)NC(=O)[C@H](CO)NC(=O)[C@H](CCCCN)NC1=O)C(=O)N[C@@H](CO)C(=O)N1CCC[C@@H]1C(=O)N1CCC[C@H]1C(=O)N[C@@H](Cc1ccccc1)C(=O)N2 [compound 54] (HELM PEPTIDE1{F.C.T.K.S.D.P.P.[Cha].C.S.[dP].P}$PEPTIDE1,PEPTIDE1,2:R3-10:R3|PEPTIDE1,PEPTIDE1,1:R1-13:R2$$$V2.0)	90	12.9	–	3.2	–	–	18	–	–	–	–	–	–	66	> 100000
CCCC[C@@H]1NC(=O)[C@H](CCC(N)=O)NC(=O)[C@@H](CCC(N)=O)NC(=O)[C@H](CCC(N)=O)NC(=O)[C@@H]2CSSC[C@H](NC1=O)C(=O)N[C@@H]([C@@H](C)O)C(=O)N[C@@H](C)C(=O)N[C@@H](CO)C(=O)N[C@@H](CC1CCCCC1)C(=O)N1CCC[C@H]1C(=O)N1CC(NC(=O)c3ccccc3)C[C@H]1C(=O)N[C@@H](CCC(N)=O)C(=O)N2 (stereo partly shown) [compound 176] (HELM PEPTIDE1{[Nle].C.T.A.S.[Cha].P.[O=C(NC1C[C@@H](C(=O)[*:2])N([*:1])C1)c1ccccc1].Q.C.Q.[dQ].Q}$PEPTIDE1,PEPTIDE1,2:R3-10:R3|PEPTIDE1,PEPTIDE1,1:R1-13:R2$$$V2.0)	7	2	–	8	1	–	55	17	15	–	–	–	69	–	–
